From ChEMBL document CHEMBL6114943, “Engineered Cyclotide Blocks Neuronal Excitotoxicity” (J Med Chem, 2025)
*1 amine or outer side, *2 acyl side, *3 side chain or, on linkers, in order; H or OH if unused. Where a SMILES comes first, the peptide text is derived from it. Bridges are numbered along the chain shown (N, C = ends). X2 = CC(C)C[C@H](C(=O)[C@H](CCCCNC(=O)c1ccc(-c2c3ccc(=[N+](C)C)cc-3oc3cc(N(C)C)ccc23)c(C(=O)[O-])c1)N[*:2])C(=O)[*:1]

Columns and labels:
[1] = Stability in C57BL/6 mouse plasma assessed as parent compound remaining at 100 uM measured after 24 hrs in presence of alteplase by HPLC analysis; assay type: ADME, cell-free; conditions: read-out: Stability
[2] = Stability in C57BL/6 mouse plasma assessed as drug degradation by measuring parent compound remaining at 100 uM measured after 5 hrs by HPLC analysis; assay type: ADME, cell-free; conditions: read-out: Stability
[3] = Drug uptake in mouse Primary neuron at 100 nM incubated for 60 mins by inverted confocal microscopic analysis relative to control; assay type: ADME, cell-based; conditions: 1 h, 0.1 µM
[4] = Drug uptake in mouse Primary neuron at 500 nM incubated for 60 mins by inverted confocal microscopic analysis relative to control; assay type: ADME, cell-based; conditions: 1 h, 0.5 µM
[5] = Stability in C57BL/6 mouse plasma assessed as drug degradation at 100 uM measured after 5 hrs in presence of alteplase by HPLC analysis; assay type: ADME, cell-free
[6] = Stability in C57BL/6 mouse plasma assessed as drug degradation by measuring parent compound remaining at 100 uM measured after 5 hrs in presence of alteplase by HPLC analysis; assay type: ADME, cell-free; conditions: read-out: Stability
[7] = Stability in C57BL/6 mouse plasma assessed as parent compound remaining at 100 uM measured after 24 hrs by HPLC analysis; assay type: ADME, cell-free; conditions: read-out: Stability

**Q.** For `CC[C@H](C)[C@@H]1NC(=O)[C@@H]2CSSC[C@@H]3NC(=O)[C@H](C(C)C)NC(=O)[C@H](CC(=O)O)NC(=O)[C@H](CO)NC(=O)[C@H](CCC(=O)O)NC(=O)[C@H]([C@@H](C)CC)NC(=O)[C@H](CO)NC(=O)[C@H](CO)NC(=O)[C@H](CC(C)C)C(=O)[C@H](CCCCNC(=O)c4ccc(-c5c6ccc(=[N+](C)C)cc-6oc6cc(N(C)C)ccc56)c(C(=O)[O-])c4)NC(=O)[C@@H]4CSSC[C@H](NC(=O)[C@H](CC(=O)O)NC(=O)[C@H](CO)NC(=O)[C@H](CC(=O)O)NC(=O)[C@H](CCCNC(=N)N)NC(=O)[C@H](CCCNC(=N)N)NC(=O)[C@H](CSSC[C@H](NC1=O)C(=O)N[C@@H](CCCNC(=N)N)C(=O)NCC(=O)N[C@@H](CC(N)=O)C(=O)NCC(=O)N[C@@H](Cc1ccc(O)cc1)C(=O)N4)NC(=O)[C@H](CCCNC(=N)N)NC(=O)[C@H](CCCNC(=N)N)NC(=O)[C@H](CCCNC(=N)N)NC(=O)[C@H](CCCNC(=N)N)NC(=O)[C@H](CC(C)C)NC(=O)[C@H]([C@@H](C)CC)NC(=O)[C@H](CCCNC(=N)N)NC(=O)[C@@H]1CCCN1C3=O)C(=O)N1CCC[C@H]1C(=O)NCC(=O)N[C@@H](C)C(=O)N2` (SSIESDVCPRILRRRRCRRDSDCPGACICRGNGYC; disulfide 8-27, 17-29, 23-35; linker N-C via X2), which remaining at 24 h, 100 µM [1] is on record?
**A.** 90%

**Q.** And the remaining at 5 h, 100 µM [2]?
**A.** 93%

**Q.** What about the Drug uptake [3] of the same compound?
**A.** 75.9%

**Q.** What about the Drug uptake [4] of the same compound?
**A.** 85.7%

**Q.** And the Stability [5]?
**A.** Unstable

**Q.** And the remaining at 5 h, 100 µM [6]?
**A.** 93%

**Q.** What about the remaining at 24 h, 100 µM [7] of the same compound?
**A.** 90%
